Experimental findings from the NIST ThermoML archive (doi:10.1021/je4001894) are described below.

Each structure is given as a SMILES string. ± gives the expanded uncertainty stated by the source.

The data set is described as follows: activity coefficient (dimensionless); of the first substance listed, at infinite dilution; xn = mol fraction of the nth substance listed. The following applies: 101 kPa, Liquid, Chromatography, x1 = 0.

For the compound `Cc1cccc(C)c1` [1,3-dimethylbenzene] + CCCC[N+]1(C)CCCC1.O=S(=O)([N-]S(=O)(=O)C(F)(F)F)C(F)(F)F, the activity coefficient came out at 1.78 ± 0.12 (323.15 K), 1.8 ± 0.12 (333.15 K) and 1.83 ± 0.12 (343.15 K).
Consider `C#CCCCCC` [1-heptyne] + CCC[N+]1(C)CCCC1.O=S(=O)([N-]S(=O)(=O)C(F)(F)F)C(F)(F)F, for which the activity coefficient reads like this: (323.15 K) 4.52 ± 0.31; (333.15 K) 4.52 ± 0.31; (343.15 K) 4.51 ± 0.31.
Consider `CC1CCCCC1` [methylcyclohexane] + CCC[N+]1(C)CCCC1.O=S(=O)([N-]S(=O)(=O)C(F)(F)F)C(F)(F)F, for which the activity coefficient (323.15 K) turned out to be 14.1 ± 0.96, the activity coefficient (333.15 K) was 12.8 ± 0.87 and the activity coefficient (343.15 K) stood at 12.2 ± 0.83.
In the same order, the values of `CCN(CC)CC` [triethylamine] + CCCC[N+]1(C)CCCC1.O=S(=O)([N-]S(=O)(=O)C(F)(F)F)C(F)(F)F are 7.07 ± 0.48, 7.07 ± 0.48 and 7.09 ± 0.48.
Turning to `ClC(Cl)Cl` [trichloromethane] + CCC[N+]1(C)CCCC1.O=S(=O)([N-]S(=O)(=O)C(F)(F)F)C(F)(F)F, the activity coefficient by setting is: (323.15 K) 0.85 ± 0.05; (333.15 K) 0.91 ± 0.06; (343.15 K) 0.96 ± 0.06.
The corresponding values for `CC(C)CO` [2-methyl-1-propanol] + CCC[N+]1(C)CCCC1.O=S(=O)([N-]S(=O)(=O)C(F)(F)F)C(F)(F)F are 2.51 ± 0.17, 2.29 ± 0.16 and 2.1 ± 0.14.
In the case of `C1COCCO1` [1,4-dioxane] + CCCC[N+]1(C)CCCC1.O=S(=O)([N-]S(=O)(=O)C(F)(F)F)C(F)(F)F, the activity coefficient came to 0.71 ± 0.05 (323.15 K), 0.72 ± 0.05 (333.15 K) and 0.72 ± 0.05 (343.15 K).
Take `c1ccsc1` [thiophene] + CCC[N+]1(C)CCCC1.O=S(=O)([N-]S(=O)(=O)C(F)(F)F)C(F)(F)F: the activity coefficient by setting is: (323.15 K) 0.86 ± 0.06; (333.15 K) 0.88 ± 0.06; (343.15 K) 0.89 ± 0.06.
As to `Cc1ccccc1` [toluene] + CCCC[N+]1(C)CCCC1.O=S(=O)([N-]S(=O)(=O)C(F)(F)F)C(F)(F)F, the activity coefficient reads like this: (323.15 K) 1.25 ± 0.08; (333.15 K) 1.27 ± 0.08; (343.15 K) 1.29 ± 0.08.
On to `CO` [methanol] + CCC[N+]1(C)CCCC1.O=S(=O)([N-]S(=O)(=O)C(F)(F)F)C(F)(F)F, for which the activity coefficient runs as follows: (323.15 K) 1.38 ± 0.09; (333.15 K) 1.28 ± 0.08; (343.15 K) 1.15 ± 0.07.
Take `CO` [methanol] + CCCC[N+]1(C)CCCC1.O=S(=O)([N-]S(=O)(=O)C(F)(F)F)C(F)(F)F: the activity coefficient was 1.4 ± 0.09 (323.15 K), 1.28 ± 0.08 (333.15 K) and 1.18 ± 0.08 (343.15 K).
In the same order, the values of `CCC(C)CC` [3-methylpentane] + CCCC[N+]1(C)CCCC1.O=S(=O)([N-]S(=O)(=O)C(F)(F)F)C(F)(F)F are 12.3 ± 0.84, 11.9 ± 0.81 and 11 ± 0.75.
The corresponding values for `CCOCC` [diethyl ether] + CCC[N+]1(C)CCCC1.O=S(=O)([N-]S(=O)(=O)C(F)(F)F)C(F)(F)F are 2.62 ± 0.18, 2.7 ± 0.18 and 2.75 ± 0.19.
Consider `CCCCCCCCCC` [decane] + CCCC[N+]1(C)CCCC1.O=S(=O)([N-]S(=O)(=O)C(F)(F)F)C(F)(F)F, for which the activity coefficient is, setting by setting: (323.15 K) 54.3 ± 3.7; (333.15 K) 49 ± 3.4; (343.15 K) 44.2 ± 3.
The corresponding values for `CC1CCCC1` [methylcyclopentane] + CCCC[N+]1(C)CCCC1.O=S(=O)([N-]S(=O)(=O)C(F)(F)F)C(F)(F)F are 8.68 ± 0.59, 8.24 ± 0.56 and 7.85 ± 0.54.
The corresponding values for `Cc1ccccc1C` [1,2-dimethylbenzene] + CCCC[N+]1(C)CCCC1.O=S(=O)([N-]S(=O)(=O)C(F)(F)F)C(F)(F)F are 1.61 ± 0.11, 1.64 ± 0.11 and 1.66 ± 0.11.
Regarding `CCC[N+](=O)[O-]` [1-nitropropane] + CCC[N+]1(C)CCCC1.O=S(=O)([N-]S(=O)(=O)C(F)(F)F)C(F)(F)F, the activity coefficient worked out at 0.77 ± 0.05 (323.15 K), 0.77 ± 0.05 (333.15 K) and 0.77 ± 0.05 (343.15 K).
For `Cc1ccccc1C` [1,2-dimethylbenzene] + CCC[N+]1(C)CCCC1.O=S(=O)([N-]S(=O)(=O)C(F)(F)F)C(F)(F)F, the activity coefficient came to 1.78 ± 0.12 (323.15 K), 1.83 ± 0.12 (333.15 K) and 1.87 ± 0.13 (343.15 K).
As for `CCO` [ethanol] + CCCC[N+]1(C)CCCC1.O=S(=O)([N-]S(=O)(=O)C(F)(F)F)C(F)(F)F, the activity coefficient by setting is: (323.15 K) 1.73 ± 0.12; (333.15 K) 1.57 ± 0.1; (343.15 K) 1.43 ± 0.09.
On to `CCCCCC` [hexane] + CCC[N+]1(C)CCCC1.O=S(=O)([N-]S(=O)(=O)C(F)(F)F)C(F)(F)F, for which the activity coefficient runs as follows: (323.15 K) 16.5 ± 1.1; (333.15 K) 15 ± 1; (343.15 K) 14.1 ± 0.96.
`c1ccccc1` [benzene] + CCCC[N+]1(C)CCCC1.O=S(=O)([N-]S(=O)(=O)C(F)(F)F)C(F)(F)F: the activity coefficient by setting is: (323.15 K) 0.92 ± 0.06; (333.15 K) 0.93 ± 0.06; (343.15 K) 0.94 ± 0.06.
Turning to `CCCCCCC` [heptane] + CCCC[N+]1(C)CCCC1.O=S(=O)([N-]S(=O)(=O)C(F)(F)F)C(F)(F)F, the activity coefficient by setting is: (323.15 K) 19.7 ± 1.4; (333.15 K) 18.4 ± 1.3; (343.15 K) 17.5 ± 1.2.
Consider `CCN(CC)CC` [triethylamine] + CCC[N+]1(C)CCCC1.O=S(=O)([N-]S(=O)(=O)C(F)(F)F)C(F)(F)F, for which the activity coefficient (323.15 K) was 8.98 ± 0.61, the activity coefficient (333.15 K) was found to be 8.1 ± 0.55 and the activity coefficient (343.15 K) was found to be 7.19 ± 0.49.
As to `CCCCCCCC` [octane] + CCCC[N+]1(C)CCCC1.O=S(=O)([N-]S(=O)(=O)C(F)(F)F)C(F)(F)F, the activity coefficient was 28.2 ± 1.9 (323.15 K), 25.3 ± 1.7 (333.15 K) and 23.5 ± 1.6 (343.15 K).
The corresponding values for `Cc1cccc(C)c1` [1,3-dimethylbenzene] + CCC[N+]1(C)CCCC1.O=S(=O)([N-]S(=O)(=O)C(F)(F)F)C(F)(F)F are 1.97 ± 0.13, 1.99 ± 0.14 and 2.05 ± 0.14.
In the case of `CCCCCCCC` [octane] + CCC[N+]1(C)CCCC1.O=S(=O)([N-]S(=O)(=O)C(F)(F)F)C(F)(F)F, the activity coefficient (323.15 K) came out at 35.8 ± 2.5, the activity coefficient (333.15 K) worked out at 31.1 ± 2.1 and the activity coefficient (343.15 K) came out at 30.6 ± 2.1.
In the same order, the values of `Cc1ccc(C)cc1` [1,4-dimethylbenzene] + CCCC[N+]1(C)CCCC1.O=S(=O)([N-]S(=O)(=O)C(F)(F)F)C(F)(F)F are 1.78 ± 0.12, 1.8 ± 0.12 and 1.81 ± 0.12.
`CCC(=O)CC` [pentan-3-one] + CCCC[N+]1(C)CCCC1.O=S(=O)([N-]S(=O)(=O)C(F)(F)F)C(F)(F)F: the activity coefficient (323.15 K) is 0.73 ± 0.05, the activity coefficient (333.15 K) stood at 0.75 ± 0.05 and the activity coefficient (343.15 K) came out at 0.77 ± 0.05.
As to `c1ccccc1` [benzene] + CCC[N+]1(C)CCCC1.O=S(=O)([N-]S(=O)(=O)C(F)(F)F)C(F)(F)F, the activity coefficient reads like this: (323.15 K) 0.99 ± 0.06; (333.15 K) 1.01 ± 0.06; (343.15 K) 1.03 ± 0.06.
Consider `C1CCCCCC1` [cycloheptane] + CCC[N+]1(C)CCCC1.O=S(=O)([N-]S(=O)(=O)C(F)(F)F)C(F)(F)F, for which the activity coefficient reads like this: (323.15 K) 29.1 ± 2; (333.15 K) 43 ± 2.9; (343.15 K) 54.7 ± 3.8.
In the same order, the values of `Cc1ccccc1` [toluene] + CCC[N+]1(C)CCCC1.O=S(=O)([N-]S(=O)(=O)C(F)(F)F)C(F)(F)F are 1.37 ± 0.09, 1.38 ± 0.09 and 1.45 ± 0.1.
The corresponding values for `CC(C)OC(C)C` [diisopropyl ether] + CCCC[N+]1(C)CCCC1.O=S(=O)([N-]S(=O)(=O)C(F)(F)F)C(F)(F)F are 5.19 ± 0.35, 5.28 ± 0.36 and 5.4 ± 0.37.
In the same order, the values of `C=CCCCC` [hex-1-ene] + CCCC[N+]1(C)CCCC1.O=S(=O)([N-]S(=O)(=O)C(F)(F)F)C(F)(F)F are 7.51 ± 0.51, 7.21 ± 0.49 and 7.12 ± 0.49.
Regarding `CCCC(C)=O` [pentan-2-one] + CCCC[N+]1(C)CCCC1.O=S(=O)([N-]S(=O)(=O)C(F)(F)F)C(F)(F)F, the activity coefficient (323.15 K) amounted to 0.8 ± 0.05, the activity coefficient (333.15 K) was 0.81 ± 0.05 and the activity coefficient (343.15 K) was 0.82 ± 0.05.
The corresponding values for `CCC(C)CC` [3-methylpentane] + CCC[N+]1(C)CCCC1.O=S(=O)([N-]S(=O)(=O)C(F)(F)F)C(F)(F)F are 14.3 ± 0.98, 13.5 ± 0.92 and 11.7 ± 0.8.
Consider `CCC(C)=O` [butanone] + CCC[N+]1(C)CCCC1.O=S(=O)([N-]S(=O)(=O)C(F)(F)F)C(F)(F)F, for which the activity coefficient is, setting by setting: (323.15 K) 0.57 ± 0.04; (333.15 K) 0.58 ± 0.04; (343.15 K) 0.64 ± 0.04.
In the same order, the values of `C1CCCCC1` [cyclohexane] + CCCC[N+]1(C)CCCC1.O=S(=O)([N-]S(=O)(=O)C(F)(F)F)C(F)(F)F are 8.74 ± 0.6, 7.96 ± 0.54 and 7.59 ± 0.52.
In the same order, the values of `CC1CCCCC1` [methylcyclohexane] + CCCC[N+]1(C)CCCC1.O=S(=O)([N-]S(=O)(=O)C(F)(F)F)C(F)(F)F are 11.5 ± 0.79, 10.7 ± 0.73 and 10.1 ± 0.69.
The corresponding values for `CCOCC` [diethyl ether] + CCCC[N+]1(C)CCCC1.O=S(=O)([N-]S(=O)(=O)C(F)(F)F)C(F)(F)F are 2.53 ± 0.17, 2.54 ± 0.17 and 2.6 ± 0.18.
